The values below come from patent publication US4366143A, “Assay for the free portion of substances in biological fluids” (Amersham International Public Limited Company, priority 1979, dated 1982).

For one assay, the system named is serum albumin. Particulars: U.S. Pat. No. 4,069,305; cited from earlier work.
Assay [1] deals with TBG. Particulars: cited from earlier work.
The subject of assay [2] is solid phase T4 specific antibody. The assay is described as follows: Binding of labelled T4 derivatives to solid phase T4 antibody with and without thiomersal (Example 7). Also noted: species or system sheep. Particulars: 125I-labelled T4 derivative. Here is the method: (§1) The dominant binding protein for T4 in serum is TBG, and the binding site for T4 on this protein may be blocked by adding an appropriate concentration of thiomersalate to the buffer.
(§2) The labelled T4 derivative was dissolved in 0.01 molar phosphate, pH 7.4 containing 0.9% sodium chloride and 0.1% gelatin to give a radioactive concentration of approximately 0.05 microcuries per milliliter. In the part of the experiment where the blocking agent was used, this buffer contained 1.8% thiomersal.
(§3) A solid phase T4 specific antibody was used that consisted of a pre-precipitated double antibody complex made by reacting sheep anti-T4 serum and donkey anti-rabbit gamma globulin serum in the abovementioned phosphate buffer. A concentration of this solid phase T4 antibody suspension was chosen that bound approximately 50% of ^125 I-T4 tracer in the presence of blocking agent under the experimental conditions used.
(§4) The binding of the labelled T4 derivatives was tested as follows:
(§5) 50 μl human serum (depleted of T4 by resin extraction)
(§6) 500 μl labelled T4 derivative (with or without blocking agent)
(§7) 1.0 ml solid phase T4 antibody suspension
(§8) Tubes were incubated for 2 hours at 37° C. and then centrifuged to settle the solid phase antibody. The supernatant solution was decanted and the radioactivity in the solid phase measured.

The subject of a further assay is antibodies. Particulars: cited from earlier work.
The subject of a further assay is TBPA. Particulars: cited from earlier work.
Assay [3] deals with T1, TBG (Homo sapiens, UniProt P05543).
T1 sequence (P05543 21-415): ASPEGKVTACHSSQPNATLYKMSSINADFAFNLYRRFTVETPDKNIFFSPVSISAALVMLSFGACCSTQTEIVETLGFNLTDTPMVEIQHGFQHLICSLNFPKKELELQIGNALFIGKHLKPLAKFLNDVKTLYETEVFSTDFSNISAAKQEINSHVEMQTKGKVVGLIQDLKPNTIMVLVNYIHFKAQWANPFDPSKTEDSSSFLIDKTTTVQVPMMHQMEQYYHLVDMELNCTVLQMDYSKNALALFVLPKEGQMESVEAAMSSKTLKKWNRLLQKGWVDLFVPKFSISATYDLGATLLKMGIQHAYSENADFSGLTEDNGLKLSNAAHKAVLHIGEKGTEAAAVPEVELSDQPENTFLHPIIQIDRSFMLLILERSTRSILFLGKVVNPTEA
The experiment in a line: Binding of T4 derivatives to TBG, from antibody binding in presence and absence of blocking agent (Example 7). As for the experimental part: as §1, §2, §3, §4, §5, §6, §7, §8
The right-hand column of the above table sets out the ratio of the figures in the two other columns. As a rule of thumb, it may be said that this ratio should be at least 0.6, preferably at least 0.9 for the compound tested to be worth considering for use in the free T4 assay. It should be noted, however, that these figures are valid only for the free T4 assay and not necessarily for other free ligand assays.

In assay [4] the test system is rabbit anti-cortisol serum. Here is the method: This experiment is designed to test the binding of cortisol-3-carboxymethyloxime-histamine-I^125 tracer with an antiserum raised to a cortisol-3-carboxymethyloxime-thyroglobulin conjugate. The protocol was as follows:
50 μl of serum was mixed with 200 μl of cortisol-3-carboxymethyloxime-histamine-I^125 tracer solution. The specific activity of the tracer was 3.9 curies per milligram. The tracer concentration was 125 picomolar. The buffer contained 28 g/l Na2 HPO4.12H2 O, 4.6 g/l citric acid monohydrate, 9 g/l NaCl, 3 g/l E.D.T.A. disodium salt, 0.5 g/l NaN3, 1 g/l gelatin and 1 g/l of 8-anilinonaphthalene sulphonic acid (the latter to inhibit binding of cortisol to transcortin and albumin).
To the mixture of tracer and serum, 200 μl of a suspension of polystyrene latex particles (0.9 micron diameter) coated with the rabbit anti-cortisol serum was added. The buffer was 28 g/l Na2 HPO4.12H2 O, 4.6 g/l citric acid monohydrate, 0.5 g/l NaN3 and 2 g/l bovine serum albumin. The effective antiserum dilution in the assay tube was 1/20000.
The resulting mixture was vortexed and incubated at 37° C. for 1 hour. The antibody coated particles were centrifuged down at 1500 g for 15 minutes and the liquid phase decanted off.

The next assay deals with T2, transcortin (Homo sapiens, UniProt P08185).
T2 construct: charcoal extracted human serum; from tissue; host or cells: human serum, charcoal extracted (unpurified)
T2 sequence (P08185 23-405): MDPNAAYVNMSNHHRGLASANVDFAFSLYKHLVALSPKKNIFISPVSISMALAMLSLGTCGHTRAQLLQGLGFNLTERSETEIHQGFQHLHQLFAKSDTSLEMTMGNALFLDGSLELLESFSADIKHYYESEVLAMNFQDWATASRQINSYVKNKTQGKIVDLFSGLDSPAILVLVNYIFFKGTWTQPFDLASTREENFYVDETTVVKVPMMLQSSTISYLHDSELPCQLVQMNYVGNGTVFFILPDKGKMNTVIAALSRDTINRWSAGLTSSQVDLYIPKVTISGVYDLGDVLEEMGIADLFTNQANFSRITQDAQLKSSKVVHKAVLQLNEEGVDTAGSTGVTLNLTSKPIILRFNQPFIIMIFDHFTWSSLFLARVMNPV
The experiment in a line: Binding of cortisol tracers to serum proteins / transcortin with and without ANS (Example 4). Particulars: for % Tracer Bound to Serum Proteins (Corrected for Non-Specific Binding): charcoal extracted human serum. Here is the method: The protocol was as follows:
B. 200 μl buffer (containing either 0 or 600 μg of 8-anilinonaphthalene sulphonic acid (ANS) as a cortisol binding site blocking agent).
A mixture of A and B was incubated at 37° C. for one hour. […] The reaction tubes were mixed for one hour at room temperature. A 0.5 ml aliquot of the supernatant was then removed for counting.

Assay [5] has as its system antiserum raised to a 21-hemisuccinate-cortisol conjugate to bovine serum albumin. Particulars: heterologous tracer-immunogen pair.

Like-named read-outs stand apart in the source and are kept apart here.

As for `C[C@]12CCC(=NOCC(=O)NCCc3c[nH]cn3)C=C1CC[C@@H]1[C@@H]2[C@@H](O)C[C@@]2(C)[C@H]1CC[C@]2(O)C(=O)CO`, the “binding to serum albumin relative to cortisol (in words)” value in the assay on serum albumin was “binds much less strongly to serum albumin than cortisol itself”.

For `N[C@H](Cc1cc(I)c(Oc2cc(I)c(O)c(I)c2)c(I)c1)C(=O)O` [D-T4, D-Thyroxine], the “binding to TBG relative to L-Thyroxine / T4 (in words)” value in the assay on TBG [1] is given as “substantially less than that of L-Thyroxine”. Further, the “% of T4 derivative bound to antibody” value in assay [2] (Thiomersal absent) is on record as 24%. Moreover, the “% of T4 derivative bound to antibody” value in assay [2] (Thiomersal present) was 50%. Moreover, the “binding to antibodies relative to L-Thyroxine / T4 (in words)” value with antibodies is listed as “binds as strongly to antibodies as does the naturally occurring L-Thyroxine”. In the assay on TBPA, the “binding to TBPA relative to L-Thyroxine / T4 (in words)” value is on record as “substantially less than that of L-Thyroxine”. Also, on TBG [3], the “Ratio (% bound to antibody, thiomersal absent / present)” value turned out to be 0.48; the “binding to TBG (in words)” value was “bound less by TBG”; the “suitability of TBG binding reduction for free-T4 assay (in words)” value is “not reduced enough for consideration as a T4 derivative for a free-T4 assay”.

Regarding “cortisol-3-carboxymethyloxime-histamine I^125”, the “% Radioactivity in the antibody Coated Particles” value came to 65.4% in assay [4] (Total Plasma Cortisol 0 μg/dl); 56.6% in assay [4] (Total Plasma Cortisol 1 μg/dl); 43.0% in assay [4] (Total Plasma Cortisol 4 μg/dl); 30.6% in [4] (Total Plasma Cortisol 10 μg/dl); 19.2% in assay [4] (Total Plasma Cortisol 28 μg/dl); 12.2% in [4] (Total Plasma Cortisol 60 μg/dl). The “binding to transcortin (in words)” value at transcortin is “binds very weakly to transcortin”. For the same molecule, the “% Tracer Bound to Serum Proteins (Corrected for Non-Specific Binding)” value was determined as 7% on transcortin (ANS 0 μg/tube) and 5% at transcortin (ANS 600 μg/tube). The “displacement from transcortin by ANS blocking agent (in words)” value at transcortin (high concentrations of ANS) is “not significantly displaced by the ANS blocking agent”. Also, the “affinity of antiserum for tracer (in words)” value in assay [5] is on record as “sufficient affinity”.
